# Assay results as given in article PMC12299904, “Purine–Hydrazone Scaffolds as Potential Dual EGFR/HER2 Inhibitors” (Pharmaceuticals, 2025).
# “And” between values parts separate entries of the source, which are not always exact repeats. Equal values may be shown once. Read-outs that look alike come from different tables or passages of the source.
# How the values were obtained:
# A549 cells = assay: In vitro cytotoxicity assay (MTT), A549; settings: for IC50: mean ± SD, three experiments
# Experimental: (§1) The selected cell lines include A549, a lung cancer cell line that is characterized by its high expression of EGFR; SKOV-3, an ovarian cancer cell line, selected for its overexpression of both EGFR and HER2; and the breast cancer cell line (SKBR-3), characterized by HER2 overexpression.
# (§2) Cells were passaged regularly at around 80% confluency using […] and maintained in 75 cm^2 flasks at 37 °C in a humidified atmosphere containing 5% CO2.
# (§3) Approximately 10 × 10^3 cells were seeded per well of the 96-well plates using drug-free media and incubated for 24 h. […] After 48 h of drug exposure, the supernatant was aspirated, and the cells were washed with 100 μL of PBS. The MTT assay was performed by creating a stock solution of MTT at a concentration of 5 mg/mL in PBS. From this stock, a solution of MTT in the cell culture media was prepared to achieve a final concentration of 0.5 mg/mL. […] The MTT solution was thereafter removed, and the generated formazan crystals were dissolved by adding 100 μL of propanol/DMSO (50:50) per well. Absorbance was measured at 570 nm, and IC50 values for each compound were calculated by comparison against negative untreated controls.
# SKOV-3 cells = assay: In vitro cytotoxicity assay (MTT), SKOV-3; type: cell-based, human; settings: for IC50: mean ± SD, three experiments
# Experimental: as §1, §2, §3
# A2780 cells = assay: In vitro cytotoxicity assay (MTT), A2780; type: cell-based; settings: Homo sapiens, 48 h, read-out: percentage of cell viability, A2780
# SKBR-3 cells = assay: In vitro cytotoxicity assay (MTT), SKBR-3; type: cell-based, human; settings: for IC50: MTT, 48 h, mean ± SD, three experiments
# Experimental: as §1, §2, §3
# [1] = In vitro cytotoxicity assay (MTT), normal cell line MRC-5; type: cell-based; settings: MRC-5 normal embryonic lung cells, normal human embryonic lung cell line, mean ± SD
# Experimental: as §2, §3
# EGFR = biological target: T1, EGFR (Homo sapiens, UniProt P00533); assay: In vitro enzyme inhibition assay, EGFR Kinase Assay Kit (BPS Bioscience); type: biochemical; settings: three independent experiments; read-out: Protein Kinase Inhibition IC50, EGFR
# T1 construct: purchased BPS Bioscience 40321
# T1 sequence (P00533 25-1210): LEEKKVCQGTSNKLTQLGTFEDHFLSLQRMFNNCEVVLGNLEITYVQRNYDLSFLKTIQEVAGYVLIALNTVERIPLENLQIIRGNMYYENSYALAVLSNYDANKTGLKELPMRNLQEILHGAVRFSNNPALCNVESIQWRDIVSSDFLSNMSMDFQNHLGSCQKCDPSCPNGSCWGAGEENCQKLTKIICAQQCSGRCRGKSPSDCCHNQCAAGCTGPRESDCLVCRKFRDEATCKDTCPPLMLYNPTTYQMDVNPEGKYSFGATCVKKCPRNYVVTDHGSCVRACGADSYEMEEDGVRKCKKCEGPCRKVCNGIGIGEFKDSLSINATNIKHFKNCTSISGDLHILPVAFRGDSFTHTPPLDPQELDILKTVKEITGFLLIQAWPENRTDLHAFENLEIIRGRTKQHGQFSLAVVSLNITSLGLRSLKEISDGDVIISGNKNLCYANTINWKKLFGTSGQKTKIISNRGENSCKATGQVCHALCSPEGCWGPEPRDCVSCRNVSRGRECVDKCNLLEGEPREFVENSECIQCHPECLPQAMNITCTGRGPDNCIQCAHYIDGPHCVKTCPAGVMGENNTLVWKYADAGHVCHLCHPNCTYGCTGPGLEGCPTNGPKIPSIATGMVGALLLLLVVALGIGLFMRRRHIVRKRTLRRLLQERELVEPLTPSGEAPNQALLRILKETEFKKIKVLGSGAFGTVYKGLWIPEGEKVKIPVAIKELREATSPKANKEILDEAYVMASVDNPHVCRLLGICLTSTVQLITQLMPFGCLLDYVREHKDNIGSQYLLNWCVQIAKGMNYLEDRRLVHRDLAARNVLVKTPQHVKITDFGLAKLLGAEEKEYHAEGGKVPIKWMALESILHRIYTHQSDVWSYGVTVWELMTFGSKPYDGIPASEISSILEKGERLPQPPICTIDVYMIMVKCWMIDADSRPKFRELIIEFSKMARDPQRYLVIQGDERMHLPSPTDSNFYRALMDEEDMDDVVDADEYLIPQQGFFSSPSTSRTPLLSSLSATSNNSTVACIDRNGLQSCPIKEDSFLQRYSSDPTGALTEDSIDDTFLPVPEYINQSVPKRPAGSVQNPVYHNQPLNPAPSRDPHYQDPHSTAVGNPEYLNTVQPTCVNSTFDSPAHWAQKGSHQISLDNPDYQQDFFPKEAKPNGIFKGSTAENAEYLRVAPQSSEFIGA
# HER2 = biological target: T2, HER2 (Homo sapiens, UniProt P04626); assay: In vitro enzyme inhibition assay, HER2 Kinase Assay Kit (BPS Bioscience); type: biochemical; settings: three independent experiments; read-out: Protein Kinase Inhibition IC50, HER2
# T2 construct: purchased BPS Bioscience 40721
# T2 sequence (P04626 23-1255): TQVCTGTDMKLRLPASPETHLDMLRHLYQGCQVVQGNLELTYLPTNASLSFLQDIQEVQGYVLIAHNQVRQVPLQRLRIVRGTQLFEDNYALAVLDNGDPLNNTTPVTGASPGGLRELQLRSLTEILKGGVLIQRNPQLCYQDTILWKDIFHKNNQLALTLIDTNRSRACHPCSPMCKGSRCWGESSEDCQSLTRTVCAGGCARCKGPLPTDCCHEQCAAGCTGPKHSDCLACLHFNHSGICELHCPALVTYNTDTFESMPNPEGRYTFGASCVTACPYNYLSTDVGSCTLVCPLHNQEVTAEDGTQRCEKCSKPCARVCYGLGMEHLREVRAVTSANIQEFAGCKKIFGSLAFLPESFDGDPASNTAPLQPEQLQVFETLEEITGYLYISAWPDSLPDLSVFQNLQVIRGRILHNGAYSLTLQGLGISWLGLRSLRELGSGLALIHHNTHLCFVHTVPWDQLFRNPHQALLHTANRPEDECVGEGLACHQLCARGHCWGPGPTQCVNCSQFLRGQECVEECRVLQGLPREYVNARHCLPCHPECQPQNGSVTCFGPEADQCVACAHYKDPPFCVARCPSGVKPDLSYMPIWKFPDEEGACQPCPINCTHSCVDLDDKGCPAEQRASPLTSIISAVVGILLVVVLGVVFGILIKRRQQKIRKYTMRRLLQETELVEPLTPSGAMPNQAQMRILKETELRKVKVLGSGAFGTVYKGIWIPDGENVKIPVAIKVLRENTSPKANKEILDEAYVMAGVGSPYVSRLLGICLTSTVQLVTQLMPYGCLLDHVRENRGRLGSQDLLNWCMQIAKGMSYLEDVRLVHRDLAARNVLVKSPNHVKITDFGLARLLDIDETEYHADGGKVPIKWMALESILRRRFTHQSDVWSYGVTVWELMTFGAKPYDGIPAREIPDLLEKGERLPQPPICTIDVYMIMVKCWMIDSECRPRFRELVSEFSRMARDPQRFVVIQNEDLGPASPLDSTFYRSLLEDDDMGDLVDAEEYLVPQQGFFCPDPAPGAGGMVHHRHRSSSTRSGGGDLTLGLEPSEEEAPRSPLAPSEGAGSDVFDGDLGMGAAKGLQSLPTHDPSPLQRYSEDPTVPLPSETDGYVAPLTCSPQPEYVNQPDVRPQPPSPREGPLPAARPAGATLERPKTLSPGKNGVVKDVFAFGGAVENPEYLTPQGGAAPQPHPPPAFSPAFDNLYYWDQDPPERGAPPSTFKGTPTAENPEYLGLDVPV
# [2] = system: A549, SKOV-3, A2780, SKBR-3 cells; assay: MTT assay, ranges stated over several cell lines; type: cell-based, human; settings: IC50 MRC-5/IC50 cancer cell line; A549, SKOV-3, SKBR-3
# Experimental: as §1, §2, §3
smiles,measurement,setting,value
"O=C(N/N=C/c1cccc(C(F)(F)F)c1)c1ccc(Nc2ncnc3c2ncn3C2CCCC2)cc1 [16b, (E)-4-((9-cyclopentyl-9H-purin-6-yl)amino)-N′-(3-(trifluoromethyl)benzylidene) benzohydrazide]",IC50,"A549 cells; Homo sapiens, A549, 48 h, read-out: Cytotoxicity (IC50), A549, MTT, 48 h",2600 ± 350 nM
same,viability at 10 µM,"A549 cells; Homo sapiens, A549, 48 h, read-out: percentage of cell viability, A549",27%
same,"Selectivity index (SI), A549",A549 cells; IC50 against MRC-5/IC50 against A549,14.07
same,IC50,"A549 cells; read-out: Cytotoxicity (IC50), A549, MTT, 48 h",2600 ± 351 nM
same,IC50,"SKOV-3 cells; Homo sapiens, SK-OV-3, 48 h, MTT, 48 h",1970 ± 70 nM
same,viability at 10 µM,"SKOV-3 cells; Homo sapiens, SK-OV-3, 10 µM, 48 h, MTT, read-out: percentage of cell viability, SKOV-3",26%
same,"Selectivity index (SI), SKOV-3",SKOV-3 cells; IC50 against MRC-5/IC50 against SKOV-3,18.55
same,IC50,"SKOV-3 cells; MTT, 48 h",1980 ± 70 nM
same,viability at 10 µM,A2780 cells,16%
same,IC50,"SKBR-3 cells; Homo sapiens, SK-BR-3, 48 h",4300 ± 940 nM
same,"Selectivity index (SI), SKBR-3",SKBR-3 cells; IC50 against MRC-5/IC50 against SKBR-3,8.51
same,IC50,SKBR-3 cells,4310 ± 948 nM
same,IC50 at 48 h,[1],36650 ± 200 nM
same,IC50,EGFR,60 nM and 62 nM
same,IC50,HER2,45 ± 10 nM
same,Selectivity index (SI) range across cancer cell lines,[2],8.51–18.55
